The source of these data is US11840495B2, “Compositions and methods related to di-substituted bicyclo[2.2.1] heptanamine-containing compounds” (The Broad Institute, Inc., priority 2020, dated 2023).

For one data set, the system named is MUC1-wt. Kind of data set: Immunofluorescence imaging of MUC1-wt in P cells (Example 2). The conditions noted are these: for EC50: 48 hr incubation, MUC1-wt; for WT ECMax (%) / WT EMax: 48 hr; for WT ECMax (%): DMSO = 0, JQ1 (250 nM) = −100% activity; for WT EMax: DMSO = 0, JQ1 = −100% activity, in %. In kind it is cell-based. The procedure, abridged:
(§1)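 P cells were treated for 48 h with 5-dose (35–0.0035 μM) or 10-dose (16–0.0008 μM) series, in duplicate. Fixed cells were immunostained for MUC1-fs, MUC1-wt, GM130 and Hoechst nuclei. Per-cell cytoplasmic intensity was normalized with DMSO as 0% and JQ1 (250 nM) as −100%; cell number was normalized to DMSO.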

The next data set concerns P cells. Kind of data set: in vitro cellular potency of TA compounds determined in P cells. In kind it is cell-based.
Data set [1] can be described thus: Test agent stability on storage. It is filed as physicochemical. The following applies: storage 4° C.; refrigerated and room temperature.
A further data set concerns MUC1-fs. The data set can be described thus: Immunofluorescence imaging of MUC1-fs in P cells (Example 2). In kind it is cell-based. The following applies: for EC50: 48 hr incubation, MUC1-fs; for ECMax (%) / Emax: 48 hr; for ECMax (%): DMSO = 0, JQ1 (250 nM) = −100% activity; for Emax: DMSO = 0, JQ1 = −100% activity, in %. The procedure, abridged: as §1
In another data set the test system is NUCB1. The data set can be described thus: Automated fixation/staining imaging assay, NUCB1 intensity (Example 3). In kind it is cell-based. The following applies: 48 hour treatment time; for NUCB1 Intensity Avg Emax: in % (unit assumed). From the text: (§2) Prepared Renal Life Media by adding the supplements provided in the kit, substituting the FBS provided with Tet system approved FBS, and filtering the media (not including provided kit antibiotics). Thawed P6 vial(s) into T175 flasks 2 weeks prior to screening. Cells have to be passaged at least once after thaw before they can be used for screening. Hyperflasks can be used depending on the cell number needed. One confluent T175 flask should give at least 25 million cells. Cells should not be split beyond 1:2-1:4 and should only be trypsinized 1×/week. Cells must be spun down after each typsinization. Flasks must be confluent at time of plating. Flasks were incubated at 37° C., 5% CO2, 98% humidity. Cells can only be cultured for up to 10 passages before a new vial will need to be thawed.
(§3) • Day 1: Cells are plated. • Day 2: Compounds are transferred into assay plates with Echo (24 hours post-seeding) • Day 3: Begin preparing reagents for fixation and staining. • Day 4: Plates are fixed and stained (48 hour treatment time) on automated system and subsequently imaged on Opera Phenix. • Day 5: Data analysis and reporting is performed. Plate Preparation:
(§4) Calculated cell number needed and media volume needed for the run (MAX 20 plates/run). Cells were seeded into Synthemax-coated 384-well Cell Carrier plates at a density of 12,000 cells/well in 40 ul of Renal Life Media/well. Calculated for an extra 2-3 plate volumes to account for volume needed to fill the Combi cassette lines and left dead volume of cell suspension. (20 ul added with Combi after compound addition for total 60 ul assay volume, due to volume constraints of Echo transfer process). Trypsinized cells with 3 ml/T175 flask of TrypLE™ Express Enzyme 1X. Then spun down cells and resuspend in 10 ml media. Counted the cells using Nexcelom Cellometer K2. Prepared a mixture of 20 ul cell suspension/20 ul Cellometer AOPI Stain (#CS2-0106) and then add 20 ul of the 2 fold diluted mixture onto a Cellometer slide. Counted the cells by using the Dual Stain option and following the prompts. Recorded the live cell density, viability, and current passage number and date in notebook. Used the live cell density in calculating how to prepare the cell seeding suspension. Mixed the cell suspension thoroughly but gently. Once Combi cassette cleaned and cell suspension was made, dispensed 40 ul of cell suspension per well into the Synthemax-coated Cell Carrier assay plates. Immediately after seeding, stored the assay plates in the Liconic Incubator on the enclosed system in the 3100 automation lab, spaced plates out every other slot in stackers to maximize air flow.
(§5) Generated Arxspan Run ID to record compound transfer in CBIP. Spun down compound plates and assay plates 2000 RPM 10 sec. Load assay plates into Echo system incubator. Coordinated plate locations and record RUN ID with automation team member. Ran protocol for 100 nl transfer according to designated plate layout/template. When run was completed, added 20 ul of media/well for all assay plates with Combi in hood in Tissue culture room. Returned plates to the incubator in the enclosed system for 48 hour treatment time.
(§6) Heated up solution (100° C. on stir plate) and dissolved Roche Blocking reagent by stirring. The resulting solution was cloudy. Stored at 4° C. and used within one week or froze aliquots at −20° C. Combi 4: 1° Antibody Cocktail: Prepared the day of experiment. Swirled to mix. […] Prepared solution in Corning 250 ml conical flask and covered with tinfoil to protect from light.
(§7) Combi 5: 2° Antibody Cocktail: Prepared the day of experiment. Swirlrf to mix. […] Prepared solution in Corning 250 ml conical flask and covered with tinfoil to protect from light.
(§8) Removed media using BioTek plate washer. (PEKASP62) Moved plates to Combi. Combi 1. Dispensed 40 μl of 4% PFA (Combi on MEDIUM Speed). Incubated plates 20 minutes. Washed two times on BioTek plate washer. (PEK26X2)
(§9) Moved plates to Combi. Combi 2. […]

Another data set deals with FS MUC1. The data set can be described thus: Automated fixation/staining imaging assay, FS MUC1 spot cytoplasm (Example 3). In kind it is cell-based. The conditions noted are these: 48 hour treatment time; for FS MUC1 Spot Cytoplasm Avg Emax: in % (unit assumed).
Description: as §2, §3, §4, §5, §6, §7, §8, §9

Structures can show the parent of a compound that is named as a salt. Where two headings read alike, the source gives them in different places.

The term EC50 denotes the concentration at which the effect is half-maximal. On to `CC[C@]1(C)[C@H]2CC[C@H](C2)[C@H]1N` (single isomer, unassigned) [Compound 202-P1], for which the EC50 is 4.04 µM with MUC1-wt (read-out: WT EC50 (Cytoplasm)), 0.026 µM in the data set with P cells and 0.04 µM in the data set on MUC1-fs (read-out: EC50(Spot)). The “WT ECMax (%)” value with MUC1-wt is on record as about 150%. Also, in data set [1], the Stability/expiration date entry was “Stable when refrigerated and at room temperature for few hours”. The “ECMax (%)” value in the data set on MUC1-fs is −77.14%.
Usually IC50 stands for the concentration at which inhibition is half-maximal. On to `N[C@]1(c2ccccc2)[C@@H]2CC[C@@H](C2)C12CCCC2` (racemic) [Compound 252], for which, in the data set on NUCB1, the EC50 is 11.2 µM and the “NUCB1 Intensity Avg Emax” value is recorded as −72.37. Moreover, in the data set on FS MUC1, the half-inhibitory concentration (IC50) worked out at 7.83 µM and the “FS MUC1 Spot Cytoplasm Avg Emax” value is −86.32.
For the compound `CC[C@]1(C)[C@@H]2CC[C@@H](C2)[C@@H]1N` (single isomer, unassigned) [Compound 203-P2], the figures for the EC50 in the data set on MUC1-wt (read-out: WT EC50 (Cytoplasm)), with P cells and in the data set on MUC1-fs (read-out: EC50(Spot)) were 2.6 µM, 0.046 µM and 0.04 µM, respectively. In the data set with MUC1-wt, the “WT ECMax (%)” value is 95%. Further, the Stability/expiration date result in data set [1] is “Stable when refrigerated and at room temperature for few hours”. Also, in the data set with MUC1-fs, the “ECMax (%)” value is listed as −75%.
On to `CC(C)[C@H]1[C@@H]2CC[C@@H](C2)[C@]1(C)N` (single isomer, unassigned) [Compound 259], for which, in the data set with NUCB1, the EC50 amounted to 14.6 µM and the “NUCB1 Intensity Avg Emax” value was −53. Also, in the data set on FS MUC1, half-maximal inhibition (IC50) was put at 2.94 µM and the “FS MUC1 Spot Cytoplasm Avg Emax” value is on record as −59.03.
For the compound `CC(C)[C@H]1[C@H]2CC[C@H](C2)[C@]1(C)N` (single isomer, unassigned) [Compound 251], in the data set on FS MUC1, the 50% inhibitory concentration (IC50) came to 0.24 µM and the “FS MUC1 Spot Cytoplasm Avg Emax” value is reported as −72.07.
Take `CC[C@@]1(C)[C@@H]2CC[C@@H](C2)[C@@H]1N` (single isomer, unassigned) [Compound 202-P2]: the EC50 in the data set with MUC1-wt (read-out: WT EC50 (Cytoplasm)) was over 1.8 µM; with P cells, 0.014 µM; with MUC1-fs (read-out: EC50(Spot)), 0.02 µM. The “WT ECMax (%)” value in the data set on MUC1-wt is about 175%. In addition, in data set [1], the Stability/expiration date result was “Stable when refrigerated and at room temperature for few hours”. Besides, in the data set with MUC1-fs, the “ECMax (%)” value is recorded as −76%.
Regarding `CC(C)[C@@H]1[C@@H]2CC[C@@H](C2)[C@]1(C)N` (single isomer, unassigned) [Compound 258], in the data set with NUCB1, the half-maximal effective concentration (EC50) was 9.77 µM and the “NUCB1 Intensity Avg Emax” value is −89.37. In the data set on FS MUC1, the IC50 was 5.87 µM and the “FS MUC1 Spot Cytoplasm Avg Emax” value is recorded as −67.73.
As for `CC(C)[C@H]1[C@H]2CC[C@H](C2)[C@@]1(C)N` (racemic) [Compound 254], in the data set on FS MUC1, the IC50 is 8.52 µM and the “FS MUC1 Spot Cytoplasm Avg Emax” value is −69.07.
For `CC(C)[C@H]1[C@H]2CC[C@H](C2)[C@]1(C)N` (racemic) [Compound 255] the same measures were 8.25 µM and −67.5.
As to `C[C@]1(N)C[C@H]2CC[C@@H]1C2` (single isomer, unassigned) [Compound 253], the “NUCB1 Intensity Avg Emax” value with NUCB1 is given as −21.51. Also, in the data set with FS MUC1, the 50% inhibitory concentration (IC50) came to 8.58 µM and the “FS MUC1 Spot Cytoplasm Avg Emax” value was −52.28.
For the compound `CC(C)[C@@H]1[C@H]2CC[C@H](C2)[C@@]1(C)N` (racemic) [Compound 256], in the data set with FS MUC1, it took 6.45 µM to reach half-maximal inhibition (IC50) and the “FS MUC1 Spot Cytoplasm Avg Emax” value was −65.11.
As to `CC1(C)[C@H]2CC[C@H](C2)[C@@]1(C)N` (racemic) [Compound 242, rac-2,3,3-trimethylbicyclo[2.2.1]heptan-2-amine hydrochloride], the figures for the EC50 with NUCB1, in the data set on MUC1-wt (read-out: WT EC50) and with MUC1-fs (read-out: EC50) were 4.93 µM, over 16 µM and 2.43 µM, respectively. Moreover, the “NUCB1 Intensity Avg Emax” value with NUCB1 is on record as −85.46. The IC50 in the data set with FS MUC1 came out at 2.43 µM. Moreover, the “FS MUC1 Spot Cytoplasm Avg Emax” value in the data set on FS MUC1 is on record as −67.4. Moreover, the “WT EMax” value with MUC1-wt was determined as 27.7. The compound also gave an Emax in the data set with MUC1-fs of −67.4.
For `CC[C@@]1(C)[C@H]2CC[C@H](C2)[C@H]1N` (single isomer, unassigned) [Compound 203-P1], the half-maximal effective concentration (EC50) was found to be 2.7 µM in the data set with MUC1-wt (read-out: WT EC50 (Cytoplasm)), 0.04 µM with P cells and 0.05 µM in the data set with MUC1-fs (read-out: EC50(Spot)). The “WT ECMax (%)” value in the data set with MUC1-wt was 91.48%. Moreover, the Stability/expiration date result in data set [1] is “Stable when refrigerated and at room temperature for few hours”. Besides, in the data set with MUC1-fs, the “ECMax (%)” value was −76.02%.
`CC(C)[C@@H]1[C@H]2CC[C@H](C2)[C@@]1(C)N` (single isomer, unassigned) [Compound 257]: in the data set with FS MUC1, the midpoint of inhibition, the IC50, lay at 0.0969 µM and the “FS MUC1 Spot Cytoplasm Avg Emax” value is −74.94.
For the compound `CC1(CC2CC2)C2CCC(C2)C1N.Cl` (racemic) [Compound 244, rac-3-(cyclopropylmethyl)-3-methylbicyclo[2.2.1]heptan-2-amine hydrochloride], the concentration for a half-maximal effect (EC50) in the data set with MUC1-wt (read-out: WT EC50) and in the data set with MUC1-fs (read-out: EC50) was over 16 µM in each case. In addition, the “WT EMax” value with MUC1-wt (hydrochloride) is on record as −9.0. In the data set with MUC1-fs (hydrochloride), the Emax is listed as −35.0.
